Reference: the CheMixHub viscosity set
Values joined by “and” are separate entries in the source; they are usually repeats but may differ in a detail not shown here. Equal values may be shown once.

Assay: xn = mol fraction of the nth substance listed

CCCc1ccccc1 + CCC(=O)O
308.15 K, 101.33 kPa
Details	viscosity [mPa·s]
x2 = 0.0799	0.7011
x2 = 0.1548	0.7021
x2 = 0.2233	0.7031
x2 = 0.275	0.7037
x2 = 0.411	0.7084
x2 = 0.519	0.7218
x2 = 0.6192	0.7357
x2 = 0.7099	0.753
x2 = 0.7906	0.7717
x2 = 0.8664	0.8012
x2 = 0.9357	0.8334

COc1ccccc1 + CCCO
viscosity [mPa·s], 101 kPa
Details	x1 = 0.1207	x1 = 0.236	x1 = 0.3462	x1 = 0.4516	x1 = 0.5526	x1 = 0.6495	x1 = 0.7424	x1 = 0.8317	x1 = 0.9175
303 K	1.448	1.219	1.138	1.075	0.9286	0.8908	0.8219	0.8308	0.8695
313 K	1.176	1.046	0.9616	0.8924	0.7921	0.7847	0.7639	0.7523	0.7392
323 K	0.9186	0.8788	0.759	0.7338	0.6514	0.6115	0.6084	0.5967	0.598

C1CCOC1 + CC(C)CC(C)(C)C
viscosity [mPa·s], 101 kPa
Details	x1 = 0.1001	x1 = 0.2	x1 = 0.3	x1 = 0.4	x1 = 0.5	x1 = 0.6	x1 = 0.7	x1 = 0.8	x1 = 0.9
298.15 K	0.479	0.477	0.475	0.474	0.473	0.472	0.472	0.471	0.471
308.15 K	0.433	0.432	0.432	0.431	0.431	0.432	0.432	0.432	0.432

COc1ccccc1 + CCO
298.15 K, 101 kPa
Details	viscosity [mPa·s]
x1 = 0.07099	1.045
x1 = 0.152	0.989
x1 = 0.2432	0.947
x1 = 0.3485	0.918
x1 = 0.4715	0.904
x1 = 0.6165	0.905
x1 = 0.7928	0.924

Cc1ccccc1 + CC#N
Details	viscosity [mPa·s]
298.15 K, 101.3 kPa, x1 = 0.04717	0.348
298.15 K, 101.3 kPa, x1 = 0.1002	0.35
298.15 K, 101.3 kPa, x1 = 0.1603	0.365
298.15 K, 101.3 kPa, x1 = 0.229	0.38
298.15 K, 101.3 kPa, x1 = 0.3082	0.403
298.15 K, 101.3 kPa, x1 = 0.4006	0.427
298.15 K, 101.3 kPa, x1 = 0.5097	0.457
298.15 K, 101.3 kPa, x1 = 0.6406	0.487
298.15 K, 101.3 kPa, x1 = 0.8004	0.527
298.17 K, 100 kPa, x2 = 0.5	0.4526
298.19 K, 100 kPa, x2 = 0.25	0.5085
303 K, 100 kPa, x2 = 0.126	0.5031
303 K, 100 kPa, x2 = 0.2324	0.4911
303 K, 100 kPa, x2 = 0.3293	0.4787
303 K, 100 kPa, x2 = 0.4233	0.4725
303 K, 100 kPa, x2 = 0.5023	0.4621
303 K, 100 kPa, x2 = 0.6588	0.4355
303 K, 100 kPa, x2 = 0.7316	0.4231
303 K, 100 kPa, x2 = 0.876	0.4007
308 K, 100 kPa, x2 = 0.126	0.4825
308 K, 100 kPa, x2 = 0.2324	0.4755
308 K, 100 kPa, x2 = 0.3293	0.4625
308 K, 100 kPa, x2 = 0.4233	0.4525
308 K, 100 kPa, x2 = 0.5023	0.4436
308 K, 100 kPa, x2 = 0.6588	0.4166
308 K, 100 kPa, x2 = 0.7316	0.4038
308 K, 100 kPa, x2 = 0.876	0.3715
308.15 K, 101 kPa, x1 = 0.1038	0.3334
308.15 K, 101 kPa, x1 = 0.2993	0.3692
308.15 K, 101 kPa, x1 = 0.3885	0.3887
308.15 K, 101 kPa, x1 = 0.5986	0.424
308.15 K, 101 kPa, x1 = 0.6907	0.4457
308.15 K, 101 kPa, x1 = 0.7946	0.4617
308.15 K, 101 kPa, x1 = 0.8925	0.4789
308.15 K, 101.3 kPa, x1 = 0.04717	0.309
308.15 K, 101.3 kPa, x1 = 0.1002	0.309
308.15 K, 101.3 kPa, x1 = 0.1603	0.33
308.15 K, 101.3 kPa, x1 = 0.3082	0.375
308.15 K, 101.3 kPa, x1 = 0.4006	0.389
308.15 K, 101.3 kPa, x1 = 0.5097	0.421
308.15 K, 101.3 kPa, x1 = 0.6406	0.434
308.15 K, 101.3 kPa, x1 = 0.8004	0.45
313 K, 100 kPa, x2 = 0.126	0.4655
313 K, 100 kPa, x2 = 0.2324	0.4551
313 K, 100 kPa, x2 = 0.3293	0.4425
313 K, 100 kPa, x2 = 0.4233	0.4311
313 K, 100 kPa, x2 = 0.5023	0.4179
313 K, 100 kPa, x2 = 0.6588	0.4006
313 K, 100 kPa, x2 = 0.7316	0.3878
313 K, 100 kPa, x2 = 0.876	0.3512
323.05 K, 100 kPa, x2 = 0.75	0.308
323.08 K, 100 kPa, x2 = 0.25	0.3879
323.09 K, 100 kPa, x2 = 0.5	0.3497

Cc1ccc(S(=O)(=O)O)cc1 + c1c[nH]cn1
viscosity, 101.33 kPa
Details	303.11 K	303.14 K	313.12 K	313.14 K	323.13 K	323.14 K
x2 = 0.78	43.59 mPa·s	–	27.71 mPa·s	–	18.65 mPa·s	–
x2 = 0.8	54.18 mPa·s	41.78 mPa·s	34.32 mPa·s	26.53 mPa·s	–	20.96 mPa·s and 17.62 mPa·s

COc1ccccc1 + c1ccccc1
101.33 kPa
Details	viscosity
293.15 K, x1 = 0.0945	0.7297 mPa·s
293.15 K, x1 = 0.1951	0.7551 mPa·s
293.15 K, x1 = 0.2984	0.8001 mPa·s
293.15 K, x1 = 0.3942	0.8413 mPa·s
293.15 K, x1 = 0.5178	0.9017 mPa·s
293.15 K, x1 = 0.6157	0.9434 mPa·s
293.15 K, x1 = 0.6574	0.9641 mPa·s
293.15 K, x1 = 0.8116	1.052 mPa·s
293.15 K, x1 = 0.906	1.097 mPa·s
298.15 K, x1 = 0.0945	0.6765 mPa·s
298.15 K, x1 = 0.1	0.635 mPa·s
298.15 K, x1 = 0.1025	0.6396 mPa·s
298.15 K, x1 = 0.1951	0.7095 mPa·s
298.15 K, x1 = 0.2	0.671 mPa·s and 0.671 mPa·s
298.15 K, x1 = 0.2004	0.6806 mPa·s
298.15 K, x1 = 0.2984	0.7437 mPa·s
298.15 K, x1 = 0.3003	0.7121 mPa·s
298.15 K, x1 = 0.3942	0.7772 mPa·s
298.15 K, x1 = 0.4	0.742 mPa·s
298.15 K, x1 = 0.402	0.7553 mPa·s
298.15 K, x1 = 0.4985	0.7849 mPa·s
298.15 K, x1 = 0.5	0.782 mPa·s and 0.782 mPa·s
298.15 K, x1 = 0.5178	0.8397 mPa·s
298.15 K, x1 = 0.6	0.821 mPa·s
298.15 K, x1 = 0.6157	0.88 mPa·s
298.15 K, x1 = 0.6574	0.9047 mPa·s
298.15 K, x1 = 0.699	0.8709 mPa·s
298.15 K, x1 = 0.8	0.907 mPa·s
298.15 K, x1 = 0.805	0.9112 mPa·s
298.15 K, x1 = 0.8116	0.9812 mPa·s
298.15 K, x1 = 0.9013	0.9506 mPa·s
303.15 K, x1 = 0.1025	0.6033 mPa·s
303.15 K, x1 = 0.2004	0.6433 mPa·s
303.15 K, x1 = 0.3003	0.6712 mPa·s
303.15 K, x1 = 0.402	0.7045 mPa·s
303.15 K, x1 = 0.4985	0.738 mPa·s
303.15 K, x1 = 0.5991	0.7765 mPa·s
303.15 K, x1 = 0.699	0.8121 mPa·s
303.15 K, x1 = 0.805	0.8545 mPa·s
303.15 K, x1 = 0.9013	0.8883 mPa·s
308.15 K, x1 = 0.1	0.556 mPa·s
308.15 K, x1 = 0.1025	0.5736 mPa·s
308.15 K, x1 = 0.2	0.587 mPa·s
308.15 K, x1 = 0.2004	0.6196 mPa·s
308.15 K, x1 = 0.3003	0.6447 mPa·s
308.15 K, x1 = 0.4	0.649 mPa·s
308.15 K, x1 = 0.402	0.675 mPa·s
308.15 K, x1 = 0.4985	0.7086 mPa·s
308.15 K, x1 = 0.5	0.68 mPa·s
308.15 K, x1 = 0.5991	0.7422 mPa·s
308.15 K, x1 = 0.6	0.715 mPa·s
308.15 K, x1 = 0.699	0.7763 mPa·s
308.15 K, x1 = 0.8	0.785 mPa·s
308.15 K, x1 = 0.805	0.8167 mPa·s
308.15 K, x1 = 0.9013	0.8509 mPa·s
313.15 K, x1 = 0.1025	0.5191 mPa·s
313.15 K, x1 = 0.2004	0.5555 mPa·s
313.15 K, x1 = 0.3003	0.5884 mPa·s
313.15 K, x1 = 0.402	0.6099 mPa·s
313.15 K, x1 = 0.4985	0.6337 mPa·s
313.15 K, x1 = 0.5991	0.669 mPa·s
313.15 K, x1 = 0.699	0.7007 mPa·s
313.15 K, x1 = 0.805	0.7318 mPa·s
313.15 K, x1 = 0.9013	0.7626 mPa·s
318.15 K, x1 = 0.1	0.489 mPa·s
318.15 K, x1 = 0.2	0.517 mPa·s
318.15 K, x1 = 0.4	0.57 mPa·s
318.15 K, x1 = 0.5	0.597 mPa·s
318.15 K, x1 = 0.6	0.626 mPa·s
318.15 K, x1 = 0.8	0.684 mPa·s
323.15 K, x1 = 0.1	0.46 mPa·s
323.15 K, x1 = 0.2	0.485 mPa·s and 0.485 mPa·s
323.15 K, x1 = 0.4	0.533 mPa·s
323.15 K, x1 = 0.5	0.559 mPa·s and 0.559 mPa·s
323.15 K, x1 = 0.6	0.585 mPa·s
323.15 K, x1 = 0.8	0.64 mPa·s

c1ccc2ccccc2c1 + ClC(Cl)(Cl)Cl
viscosity [mPa·s], 101 kPa
Details	303.15 K	308.15 K	313.15 K	318.15 K	323.15 K
x1 = 0.2515	1.085	1	0.9335	0.8708	0.8138
x1 = 0.4038	–	–	1.109	1.036	0.9672
